According to article PMC8462848, “Quinazolin-4(3H)-one based potential multiple tyrosine kinase inhibitors with excellent cytotoxicity” (Journal of Enzyme Inhibition and Medicinal Chemistry, 2021):

Columns and labels:
[1] = test system: MCF7 (human breast adenocarcinoma) cells; assay: MTT cytotoxicity assay, MCF7; assay type: cell-based
Method: (§1) The cytotoxicity of the synthesised quinazolin-4(3H)-ones was evaluated by MTT assay, as previously described. Two cancer cell lines, MCF7 (human breast adenocarcinoma) and A2780 (human ovary adenocarcinoma), were used in this study, which were obtained from the ATCC (Rockville, MD, USA). […] Additionally, compounds were prepared at the same medium to obtain serial dilutions (50, 25, […] and 0.1 µM). […] The media were aspirated, and the formazan crystals were solubilised by adding 150 µL DMSO. Absorbance was read on a multi-plate reader (BioRad) at […]. […] The data were obtained from triplicates and analysed using statistical software.

[2] = test system: A2780 (human ovary adenocarcinoma) cells; assay: MTT cytotoxicity assay, A2780; assay type: cell-based
Method: as §1

VEGFR2 = biological target: T1, VEGFR2 (Homo sapiens, UniProt P35968); assay: VEGFR2 kinase assay kit, Kinase-Glo MAX luminescence; assay type: biochemical; details: for inhibition at 0.01 µM / inhibition at 0.1 µM / inhibition at 1 µM / inhibition at 10 µM: one experimental data, read-out: % Inhibition VEGFR-2; for IC50: mean ± SD of triplicate
T1 construct: purchased #40325
T1 sequence (P35968 20-1356): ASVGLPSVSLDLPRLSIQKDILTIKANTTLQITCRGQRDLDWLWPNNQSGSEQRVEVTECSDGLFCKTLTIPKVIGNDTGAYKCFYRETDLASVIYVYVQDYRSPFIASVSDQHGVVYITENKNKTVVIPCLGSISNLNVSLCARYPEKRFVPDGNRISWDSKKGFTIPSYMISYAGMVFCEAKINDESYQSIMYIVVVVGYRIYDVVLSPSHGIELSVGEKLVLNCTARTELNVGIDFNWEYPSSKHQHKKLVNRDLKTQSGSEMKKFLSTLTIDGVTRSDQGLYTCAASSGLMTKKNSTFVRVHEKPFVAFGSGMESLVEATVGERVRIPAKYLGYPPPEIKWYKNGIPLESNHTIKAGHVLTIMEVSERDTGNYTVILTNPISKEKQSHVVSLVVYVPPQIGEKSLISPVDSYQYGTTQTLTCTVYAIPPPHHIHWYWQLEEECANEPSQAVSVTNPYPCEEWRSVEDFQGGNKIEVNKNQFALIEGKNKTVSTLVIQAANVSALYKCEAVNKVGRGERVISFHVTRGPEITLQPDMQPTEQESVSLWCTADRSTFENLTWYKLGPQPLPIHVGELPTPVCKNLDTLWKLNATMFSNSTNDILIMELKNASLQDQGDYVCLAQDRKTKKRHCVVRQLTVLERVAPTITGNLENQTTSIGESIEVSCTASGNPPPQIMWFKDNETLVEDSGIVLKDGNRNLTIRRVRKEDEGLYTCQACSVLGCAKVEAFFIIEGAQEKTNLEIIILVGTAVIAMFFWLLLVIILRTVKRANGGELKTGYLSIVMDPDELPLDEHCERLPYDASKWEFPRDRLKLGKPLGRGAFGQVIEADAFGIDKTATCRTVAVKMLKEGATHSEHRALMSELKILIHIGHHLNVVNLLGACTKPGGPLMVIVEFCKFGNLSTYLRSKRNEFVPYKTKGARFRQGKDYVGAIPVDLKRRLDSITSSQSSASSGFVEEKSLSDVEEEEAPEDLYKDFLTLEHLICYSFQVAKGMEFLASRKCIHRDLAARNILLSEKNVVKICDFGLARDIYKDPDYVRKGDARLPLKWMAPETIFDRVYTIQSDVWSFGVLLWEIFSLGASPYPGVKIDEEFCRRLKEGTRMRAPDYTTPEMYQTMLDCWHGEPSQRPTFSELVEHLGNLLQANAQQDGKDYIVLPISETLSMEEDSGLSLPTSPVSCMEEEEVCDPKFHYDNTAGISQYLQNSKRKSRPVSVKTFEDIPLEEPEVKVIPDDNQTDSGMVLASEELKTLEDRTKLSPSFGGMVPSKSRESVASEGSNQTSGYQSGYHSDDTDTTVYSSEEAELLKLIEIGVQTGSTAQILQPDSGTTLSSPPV
Method: (§2) The HER2/EGFR/VEGFR2 assay kit is designed to measure HER2/EGFR/VEGFR-2 inhibitory activity for screening and profiling applications, using Kinase-Glo® MAX as a detection reagent. The HER2/EGFR/VEGFR2 assay kit comes in a convenient 96-well format, with enough purified recombinant HER2/EGFR/VEGFR2 enzyme, HER2/EGFR/VEGFR2 substrate, ATP and kinase buffer 1 for 100 enzyme reactions. […] […] The quinazolin-4(3H)-ones were diluted in 10% DMSO and 5 μl of the dilution was added to a 50 μl reaction so that the final concentration of DMSO was 1% in all of the reactions. All of the enzymatic reactions were conducted at 30 °C for 40 min. The 50 μl reaction mixture contained 40 mM Tris, pH 7.4, 10 mM MgCl2, 0.1 mg/mL BSA, 1 mM DTT, 10 mM ATP, kinase substrate and the enzyme HER2 / EGFR / VEGFR2. After the enzymatic reaction, 50 μl of Kinase-Glo® MAX luminescence kinase assay solution was added to each reaction and the plates were incubated for 5 min at room temperature. Luminescence signal was measured using a Bio Tek Synergy 2 microplate reader (For detail enzyme assay protocol and the results, please see supplementary data).

EGFR = biological target: T2, EGFR (Homo sapiens, UniProt P00533); assay: EGFR kinase assay kit, Kinase-Glo MAX luminescence; assay type: biochemical; details: for inhibition at 0.01 µM / inhibition at 0.1 µM / inhibition at 1 µM / inhibition at 10 µM: one experimental data; for IC50: mean ± SD of triplicate
T2 construct: purchased #40321
T2 sequence (P00533 25-1210): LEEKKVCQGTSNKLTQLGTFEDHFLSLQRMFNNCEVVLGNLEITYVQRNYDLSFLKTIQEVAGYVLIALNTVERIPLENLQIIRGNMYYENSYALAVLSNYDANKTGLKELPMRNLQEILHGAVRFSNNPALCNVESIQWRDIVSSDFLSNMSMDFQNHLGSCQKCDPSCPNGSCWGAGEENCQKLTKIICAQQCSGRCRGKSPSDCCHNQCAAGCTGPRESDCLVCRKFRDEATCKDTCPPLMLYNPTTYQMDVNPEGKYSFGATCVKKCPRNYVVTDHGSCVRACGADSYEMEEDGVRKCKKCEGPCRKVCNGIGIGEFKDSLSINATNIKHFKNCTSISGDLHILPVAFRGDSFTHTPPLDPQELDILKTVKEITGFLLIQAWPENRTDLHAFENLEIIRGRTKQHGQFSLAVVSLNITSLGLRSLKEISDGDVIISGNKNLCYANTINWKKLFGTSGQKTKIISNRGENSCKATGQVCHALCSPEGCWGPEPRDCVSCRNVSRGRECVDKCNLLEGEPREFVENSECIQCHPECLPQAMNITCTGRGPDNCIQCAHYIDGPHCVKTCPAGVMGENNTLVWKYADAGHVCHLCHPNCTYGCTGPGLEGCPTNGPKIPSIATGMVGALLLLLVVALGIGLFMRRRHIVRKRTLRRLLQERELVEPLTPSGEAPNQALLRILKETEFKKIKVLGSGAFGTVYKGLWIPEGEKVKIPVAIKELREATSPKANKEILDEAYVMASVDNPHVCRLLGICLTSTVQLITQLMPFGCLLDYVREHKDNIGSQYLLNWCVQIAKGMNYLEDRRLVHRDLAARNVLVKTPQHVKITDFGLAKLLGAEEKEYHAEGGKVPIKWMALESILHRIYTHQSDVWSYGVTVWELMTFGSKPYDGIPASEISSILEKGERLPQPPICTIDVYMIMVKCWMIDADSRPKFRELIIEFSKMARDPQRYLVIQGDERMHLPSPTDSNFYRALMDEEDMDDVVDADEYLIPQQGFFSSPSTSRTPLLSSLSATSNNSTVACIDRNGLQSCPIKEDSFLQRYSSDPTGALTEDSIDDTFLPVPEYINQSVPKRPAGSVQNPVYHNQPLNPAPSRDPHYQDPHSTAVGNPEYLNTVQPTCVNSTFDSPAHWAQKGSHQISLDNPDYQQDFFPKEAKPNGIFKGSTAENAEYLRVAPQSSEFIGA
Method: as §2

CDK2/CyclinA2 [3] = biological target: T3, CDK2/CyclinA2 (Homo sapiens, UniProt P24941); assay: CDK2 Assay Kit, Kinase-Glo MAX luminescence; assay type: biochemical; details: one experimental data
T3 construct: purchased #79599
Method: The CDK2 Assay Kit is designed to measure CDK2/CyclinA2 activity for screening and profiling applications, using Kinase-Glo® MAX as a detection reagent. The CDK2 Assay Kit comes in a convenient 96-well format, with enough purified recombinant CDK2/CyclinA2 enzyme, CDK substrate peptide, ATP and kinase assay buffer for 100 enzyme reactions. […] […] The compounds were diluted in 10% DMSO and 5 μl of the dilution was added to a 50 μl reaction so that the final concentration of DMSO was 1% in all of the reactions. All of the enzymatic reactions were conducted at 30 °C for 40 min. The 50 μl reaction mixture contained 40 mM Tris, pH 7.4, 10 mM MgCl2, 0.1 mg/mL BSA, 1 mM DTT, 10 mM ATP, Kinase substrate and the enzyme (CDK2/CyclinA2). After the enzymatic reaction, 50 μl of Kinase-Glo® MAX Luminescence kinase assay solution was added to each reaction and the plates were incubated for 5 min at room temperature. Luminescence signal was measured using a Bio Tek Synergy 2 microplate reader.
Figure S1. Calculation of the IC20 Values of Protein Kinase Enzyme CDK2 for 2f
* All the kinase IC20 (µM) were calculated according to the above equations.
(1 picture or pasted object on this page, not shown here)

HER2 = biological target: T4, HER2 (Homo sapiens, UniProt P04626); assay: HER2 kinase assay kit, Kinase-Glo MAX luminescence; assay type: biochemical; details: for inhibition at 0.01 µM / inhibition at 0.1 µM / inhibition at 1 µM / inhibition at 10 µM: one experimental data; for IC50: mean ± SD of triplicate
T4 construct: purchased #40721
T4 sequence (P04626 23-1255): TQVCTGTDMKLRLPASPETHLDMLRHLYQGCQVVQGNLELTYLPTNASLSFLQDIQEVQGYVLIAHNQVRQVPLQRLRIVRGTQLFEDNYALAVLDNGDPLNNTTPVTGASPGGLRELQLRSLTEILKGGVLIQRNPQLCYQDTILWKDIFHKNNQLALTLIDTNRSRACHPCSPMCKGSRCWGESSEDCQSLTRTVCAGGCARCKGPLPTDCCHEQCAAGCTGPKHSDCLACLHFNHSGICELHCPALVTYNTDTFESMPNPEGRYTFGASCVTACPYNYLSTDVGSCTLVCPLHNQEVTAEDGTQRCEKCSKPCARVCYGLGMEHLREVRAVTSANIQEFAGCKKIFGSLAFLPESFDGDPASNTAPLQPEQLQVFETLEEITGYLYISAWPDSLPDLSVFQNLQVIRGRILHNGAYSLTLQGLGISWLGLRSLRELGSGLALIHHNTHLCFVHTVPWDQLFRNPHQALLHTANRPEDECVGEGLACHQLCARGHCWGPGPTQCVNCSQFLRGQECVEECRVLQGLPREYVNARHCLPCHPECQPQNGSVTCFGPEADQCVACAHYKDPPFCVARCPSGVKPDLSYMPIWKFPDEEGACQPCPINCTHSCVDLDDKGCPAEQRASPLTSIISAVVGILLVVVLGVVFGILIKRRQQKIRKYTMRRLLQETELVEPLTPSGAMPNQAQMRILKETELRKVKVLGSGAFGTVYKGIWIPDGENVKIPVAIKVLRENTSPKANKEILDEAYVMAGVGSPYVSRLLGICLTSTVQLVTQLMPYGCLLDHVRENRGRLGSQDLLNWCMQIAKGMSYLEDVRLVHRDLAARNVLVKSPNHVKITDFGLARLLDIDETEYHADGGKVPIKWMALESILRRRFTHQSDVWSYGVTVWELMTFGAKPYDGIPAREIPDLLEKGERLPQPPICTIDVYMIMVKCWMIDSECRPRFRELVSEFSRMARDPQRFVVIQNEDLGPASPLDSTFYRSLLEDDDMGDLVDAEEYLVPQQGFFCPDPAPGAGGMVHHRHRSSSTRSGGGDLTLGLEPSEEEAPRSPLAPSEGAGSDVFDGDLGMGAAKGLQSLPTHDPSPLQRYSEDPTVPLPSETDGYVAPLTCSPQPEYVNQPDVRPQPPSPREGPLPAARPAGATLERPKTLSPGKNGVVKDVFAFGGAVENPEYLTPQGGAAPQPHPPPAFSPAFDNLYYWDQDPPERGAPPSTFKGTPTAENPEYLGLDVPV
Method: as §2

CDK2/CyclinA2 [4] = biological target: T3, CDK2/CyclinA2; assay: CDK2 Assay Kit, Kinase-Glo MAX luminescence; assay type: biochemical; details: mean ± SD of triplicate
[5] = Homo sapiens, MCF7, mean ± SD of triplicate
[6] = Homo sapiens, A2780, mean ± SD of triplicate

inhibition at 0.01 µM (VEGFR2) [%]	inhibition at 0.1 µM (VEGFR2) [%]	inhibition at 1 µM (VEGFR2) [%]	inhibition at 10 µM (VEGFR2) [%]	IC50 (VEGFR2) [nM]	melting point [°C]	inhibition at 0.01 µM (EGFR) [%]	inhibition at 0.1 µM (EGFR) [%]	inhibition at 1 µM (EGFR) [%]	inhibition at 10 µM (EGFR) [%]	IC50 (EGFR) [nM]	inhibition at 0.01 µM (CDK2/CyclinA2 [3]) [%]	inhibition at 0.1 µM (CDK2/CyclinA2 [3]) [%]	inhibition at 1 µM (CDK2/CyclinA2 [3]) [%]	inhibition at 0.01 µM (HER2) [%]	inhibition at 0.1 µM (HER2) [%]	inhibition at 1 µM (HER2) [%]	inhibition at 10 µM (HER2) [%]	Molecule	IC50 [1, 5] [nM]	IC50 [2, 6] [nM]	also measured
																		Ethyl 2-((5-chloro-6-methyl-4-oxo-3-phenyl-3,4-dihydroquinazolin-2-yl)thio)acetate [2e]			IC50 ([1]; mean ± SD of triplicate): 14900 ± 990 nM; IC50 ([2]; mean ± SD of triplicate): 16400 ± 1800 nM
0.324	20.3	38.9	33.9	247 ± 15	132 to 134	22.2	49.9	84.3	90.2	813 ± 22	4.28	40.5	37.8	12.3	47	82.4	93.5	CCOC(=O)CSc1nc2c(C)cc(Cl)cc2c(=O)n1Cc1ccccc1 [2j]	3790 ± 960	2680 ± 90	inhibition at 10 µM (CDK2/CyclinA2 [3]): 83.7%; IC50 (HER2): 343 ± 15 nM; IC50 (CDK2/CyclinA2 [4]): 862 ± 16 nM
					166 to 168													COc1cc2nc(SCC(=O)NN)n(-c3ccccc3)c(=O)c2cc1OC [3d, 2-((6,7-Dimethoxy-4-oxo-3-phenyl-3,4-dihydroquinazolin-2-yl)thio)acetohydrazide]	500 ± 290	770 ± 660	
3.49	20.2	40.1	38.3	1920 ± 21	73 to 75	2.18	19.1	29.2	83.2	584 ± 11	4.32	31.2	32.9	2.33	38.9	74.8	89.8	CCOC(=O)CSc1nc2ccc(Cl)cc2c(=O)n1Cc1ccccc1 [2f, Ethyl 2-((3-benzyl-6-chloro-4-oxo-3,4-dihydroquinazolin-2-yl)thio)acetate]	1560 ± 240	1320 ± 430	inhibition at 10 µM (CDK2/CyclinA2 [3]): 84%; IC50 (HER2): 264 ± 13 nM; IC50 (CDK2/CyclinA2 [4]): 424 ± 12 nM
					181 to 183													NNC(=O)CSc1nc2ccc(Cl)cc2c(=O)n1-c1ccccc1 [3a, 2-((6-Chloro-4-oxo-3-phenyl-3,4-dihydroquinazolin-2-yl)thio)acetohydrazide]	200 ± 20	3000 ± 1200	
					151 to 153													CCOC(=O)CSc1nc2c(F)cc(F)cc2c(=O)n1-c1ccccc1 [2c, Ethyl 2-((6,8-difluoro-4-oxo-3-phenyl-3,4-dihydroquinazolin-2-yl)thio)acetate]	730 ± 180	490 ± 50	
3.17	19.5	33.4	33.1	1370 ± 26	185 to 186	8.4	38	29.2	87.2	128 ± 16	3.74	19.9	70.2	2.73	44.4	77.3	89.8	NNC(=O)CSc1nc2c(F)cc(F)cc2c(=O)n1Cc1ccccc1 [3h, 2-((3-Benzyl-6,8-difluoro-4-oxo-3,4-dihydroquinazolin-2-yl)thio)acetohydrazide]	840 ± 50	630 ± 160	inhibition at 10 µM (CDK2/CyclinA2 [3]): 82.1%; IC50 (HER2): 248 ± 23 nM; IC50 (CDK2/CyclinA2 [4]): 257 ± 16 nM
					145 to 146													CCOC(=O)CSc1nc2cc(OC)c(OC)cc2c(=O)n1-c1ccccc1 [2d, Ethyl 2-((6,7-dimethoxy-4-oxo-3-phenyl-3,4-dihydroquinazolin-2-yl)thio)acetate]	1560 ± 20	1230 ± 100	
					124 to 127													CCOC(=O)CSc1nc2ccc(F)cc2c(=O)n1-c1ccccc1 [2b, Ethyl 2-((6-fluoro-4-oxo-3-phenyl-3,4-dihydroquinazolin-2-yl)thio)acetate]	15720 ± 70	2980 ± 300	
					201 to 203													NNC(=O)CSc1nc2c(F)cc(F)cc2c(=O)n1-c1ccccc1 [3c, 2-((6,8-Difluoro-4-oxo-3-phenyl-3,4-dihydroquinazolin-2-yl)thio)acetohydrazide]	330 ± 30	1210 ± 10	
																		2-((5-Chloro-6-methyl-4-oxo-3-phenyl-3,4-dihydroquinazolin-2-yl)thio)acetohydrazide [3e]			IC50 ([1]; mean ± SD of triplicate): 740 ± 230 nM; IC50 ([2]; mean ± SD of triplicate): 920 ± 110 nM
					192 to 194													NNC(=O)CSc1nc2ccc(F)cc2c(=O)n1-c1ccccc1 [3b, 2-((6-Fluoro-4-oxo-3-phenyl-3,4-dihydroquinazolin-2-yl)thio)acetohydrazide]	1320 ± 120	300 ± 60	
10.2	33.5	37.2	89.4	257 ± 23		3.38	41.2	77.2	92.4	181 ± 11	10.3	44.3	72.1	17.9	20.3	84.3	94.8	COc1cc2nc(SCC(=O)NN)n(Cc3ccccc3)c(=O)c2cc1OC [3i, 2-((3-Benzyl-6,7-dimethoxy-4-oxo-3,4-dihydroquinazolin-2-yl)thio)acetohydrazide]	560 ± 310	1360 ± 70	inhibition at 10 µM (CDK2/CyclinA2 [3]): 90.4%; IC50 (HER2): 79 ± 15 nM; IC50 (CDK2/CyclinA2 [4]): 177 ± 32 nM
3.73	40.9	71.9	90.3	294 ± 11		11.7	40.3	81.3	94	221 ± 14	14.9	47.1	74.1	23.4	23.4	83.8	94.8	NNC(=O)CSc1nc2ccc(F)cc2c(=O)n1Cc1ccccc1 [3g, 2-((3-Benzyl-6-fluoro-4-oxo-3,4-dihydroquinazolin-2-yl)thio)acetohydrazide]			inhibition at 10 µM (CDK2/CyclinA2 [3]): 89%; IC50 (HER2): 112 ± 16 nM; IC50 (CDK2/CyclinA2 [4]): 207 ± 17 nM
					85 to 87													CCOC(=O)CSc1nc2ccc(Cl)cc2c(=O)n1-c1ccccc1 [2a, Ethyl 2-((6-chloro-4-oxo-3-phenyl-3,4-dihydroquinazolin-2-yl)thio)acetate]	1500 ± 10	2050 ± 640	
														23.3	23.2	84.3	92.2	CS(=O)(=O)CCNCc1ccc(-c2ccc3ncnc(Nc4ccc(OCc5cccc(F)c5)c(Cl)c4)c3c2)o1 [lapatinib, reference compound]	5900 ± 740	11100 ± 1030	IC50 ([2]; mean ± SD of triplicate): 12100 ± 1030 nM
